Data as given in patent US11541022B2, “Methods and compositions for the treatment of neurological diseases and syndromes of aging” (priority 2018, dated 2023).

How the values were obtained:
[1] = Trial of L-Dopa with C60 and mitochondrial fusion; assay type: in vivo, human; details: one subject
Procedure: In some embodiments, the amino acid L-Dopa is administered with a mitochondrial fusion promoter to stimulate the proliferation of SCs. In some embodiments it is used with C60 and/or with a demethylase promoter. In some embodiments it is used with glutamine. […] Treatment with L-Dopa may be combined with 5-HTP and/or SRIs for a full spectrum effect.

[2] = system: epigenetic age (methylation patterns of gene markers from buccal cells); experiment: Epigenetic age tests in AR (Age Regression) trials of the stem cell regime; assay type: in vivo, human
From the text: Test subject's epigenetic age results are summarized below in the table of AR (Age Regression) trials: The second column of Table 1 reports the difference between epigenetic and chronological age; the third column reports the weeks of treatment, wherein there was at least one fusion cycle per week and generally two […] cycles initially, decreasing to the end of this period to one treatment every week or two; the fourth column reports the total elapsed time from baseline; the fifth column reports the regimes used; and the sixth column reports the nutritional cocktails. Several companies are presently offering epigenetic tests that purport to give epigenetic age that generally closely correlates with chronological age. The subject had taken a test offered by Osiris Green two months prior beginning treatment. […] This was in spite of their prior use of C60 for several years outside of the regime. […] This was far outside the expected range. […] It appears that using a demethylase promoter during stem cell stimulation produces a far more rapid decline in epigenetic age, as removing aberrant methylation is easiest during cell division. The epigenetic testing labs used—Osirus Green, TrueMe, EpiAging and Epimorphy—all used different sets of genes, yet results were within a few years for samples taken at the same time. […] It was initially hypothesized that any negative impact would be minimal if used only with mitochondrial switches, but the telomeres of rapidly dividing TACs were likely also lengthened, and this blocked TAC senescence and replacement. Since TACs divide frequently, they also experience rapid epigenetic aging, thus somatic cells derived from TACs with telomeres extended by an agonist reach higher epigenetic age that would ordinarily be possible.

[3] = cited from earlier work; for half-life: stated in words
[4] = mice, intraperitoneal injection; cited from earlier work

N[C@@H](Cc1ccc(O)c(O)c1)C(=O)O [L-Dopa, Levodopa]
tremors [1]: eliminated tremors

CC(C)(O)[C@@H]1CC[C@](C)([C@H]2[C@@H](O)C[C@@]3(C)[C@@H]4C[C@H](O)[C@H]5C(C)(C)[C@@H](O)CC[C@@]56C[C@@]46CC[C@]23C)O1 [cycloasragenol, cycloastragenol]
effect on epigenetic age ([2]; telomere agonist every fourth treatment): did not show the same negative effects
effect on epigenetic age ([2]; telomere agonist with every C60/mitochondrial switches treatment): rapidly increase epigenetic age

O=C1c2c(O)cc(O)cc2O[C@H](c2cc(O)c(O)c(O)c2)[C@H]1O [dihydromyricetin, Dihydromyricetin]
time to elimination from the body ([3]; Liu et al. 2019): about 12 hours

Oc1ccc(C=Cc2cc(O)cc(O)c2)cc1 [resveratrol]
epigenetic age below chronological age ([2]; 300 mg of resveratrol one hour before C60, one treatment per week for 8 weeks): 14.6 years

CCCCCCCCCCCCCCCCCC(=O)O [stearic acid]
half-life [3]: ten to twelve hours

C[S+]([O-])CCCCN=C=S (stereo not shown) [sulforaphane]
duration of activity [4]: approximately sixty minutes
time to maximum activity [4]: 15 min
time to peak in the bloodstream ([3]; in vivo): ≥ 15 min
half-life [3]: about an hour
